The values that follow come from publication PMC6359284, “Identification, Characterization, and Optimization of Integrin αvβ6-Targeting Peptides from a One-Bead One-Compound (OBOC) Library: Towards the Development of Positron Emission Tomography (PET) Imaging Agents” (Molecules, 2019).

The target of one test is T1, integrin αvβ1 (Homo sapiens, UniProt P05556+P06756).
T1 construct: purchased R&D Systems
The experiment in a line: Competitive binding ELISA, purified integrin αvβ1. Particulars: competitive ELISA vs biotinylated fibronectin, n = 3. Here is the method:
(§1) Competitive binding ELISAs were performed to evaluate the binding affinity of each peptide relative to each integrin’s biotinylated natural ligand (transforming growth factor beta 1 latency-associated peptide or TGFβ1-LAP (G&P Biosciences, Santa Clara, CA, USA) for integrins αvβ6 and αvβ8, fibronectin (Thermo Fisher, Waltham, MA, USA) for integrin αvβ1, and vitronectin (Thermo Fisher) for integrins αvβ3 and αvβ5), as previously described. In brief, anti-αv antibody (P2W7, 5 μg/mL, Abcam) was plated (50 μL/well) at 37 °C for 1 h, washed with PBS (3×), and blocked overnight with blocking buffer (300 μL/well, 5% bovine serum albumin (BSA), 1% Tween 20, in PBS), followed by washing with PBS (3×). […] The plate was incubated at 37 °C for 1 h, then washed with wash buffer (3×). A 1:1000 dilution of ExtrAvidin Horseradish Peroxidase (HRP) was added to each well (50 μL/well), incubated at 37 °C for 1 h, and then washed with wash buffer (3×). The ExtrAvidin HRP was detected with 3,3′,5,5′-tetramethylbenzidine (50 μL/well, Promega, Madison, WI, USA) for 10–15 min at room temperature. The reaction was stopped by adding 1N H2SO4 (50 μL/well) and the absorbance was measured in a Multiscan Ascent plate reader (Thermo Fisher) at 450 nm. Half-maximal inhibitory concentration (IC50) of peptides was determined fitting to sigmoidal dose-response model in GraphPad Prism 5.0 (San Diego, CA, USA).
(In an ELISA, binding on a coated surface is turned into a signal by an enzyme label.)

The target in another test is T2, integrin αvβ6 (Homo sapiens, UniProt P06756+P18564).
T2 construct: purchased R&D Systems
The experiment in a line: Competitive binding ELISA, purified integrin αvβ6. Here is the method:
as §1

Peptide text beside a SMILES is read from it. * marks the point of attachment. Benzoyl(4-F) = O=C(c1ccc(F)cc1)*

T1 sequence (P06756 31-992 limits assumed): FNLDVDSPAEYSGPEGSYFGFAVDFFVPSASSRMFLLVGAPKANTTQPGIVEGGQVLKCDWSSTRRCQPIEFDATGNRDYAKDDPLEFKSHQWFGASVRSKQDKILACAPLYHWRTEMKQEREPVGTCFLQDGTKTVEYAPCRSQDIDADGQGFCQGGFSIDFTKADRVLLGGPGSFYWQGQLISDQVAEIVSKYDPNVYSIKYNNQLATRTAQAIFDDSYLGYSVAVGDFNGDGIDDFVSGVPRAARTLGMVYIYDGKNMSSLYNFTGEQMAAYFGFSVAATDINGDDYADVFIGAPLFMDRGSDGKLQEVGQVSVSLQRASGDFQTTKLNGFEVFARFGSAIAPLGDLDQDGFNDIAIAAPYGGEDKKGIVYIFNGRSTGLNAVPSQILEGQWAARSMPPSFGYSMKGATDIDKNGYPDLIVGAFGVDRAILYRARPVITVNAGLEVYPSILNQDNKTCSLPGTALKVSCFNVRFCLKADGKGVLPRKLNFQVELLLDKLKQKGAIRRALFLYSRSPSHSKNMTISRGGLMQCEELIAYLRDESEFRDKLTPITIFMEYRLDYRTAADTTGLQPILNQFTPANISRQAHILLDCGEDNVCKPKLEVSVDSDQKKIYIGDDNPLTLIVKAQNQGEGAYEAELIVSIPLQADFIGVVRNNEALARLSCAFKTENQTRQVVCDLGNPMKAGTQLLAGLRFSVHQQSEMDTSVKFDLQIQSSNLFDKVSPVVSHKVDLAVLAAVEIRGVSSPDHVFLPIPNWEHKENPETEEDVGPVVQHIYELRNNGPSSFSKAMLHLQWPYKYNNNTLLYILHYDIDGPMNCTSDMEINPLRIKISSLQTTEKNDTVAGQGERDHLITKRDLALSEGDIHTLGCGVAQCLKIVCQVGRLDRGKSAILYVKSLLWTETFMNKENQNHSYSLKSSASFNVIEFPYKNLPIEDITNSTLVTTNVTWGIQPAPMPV
T1 sequence (P05556 21-728 limits assumed): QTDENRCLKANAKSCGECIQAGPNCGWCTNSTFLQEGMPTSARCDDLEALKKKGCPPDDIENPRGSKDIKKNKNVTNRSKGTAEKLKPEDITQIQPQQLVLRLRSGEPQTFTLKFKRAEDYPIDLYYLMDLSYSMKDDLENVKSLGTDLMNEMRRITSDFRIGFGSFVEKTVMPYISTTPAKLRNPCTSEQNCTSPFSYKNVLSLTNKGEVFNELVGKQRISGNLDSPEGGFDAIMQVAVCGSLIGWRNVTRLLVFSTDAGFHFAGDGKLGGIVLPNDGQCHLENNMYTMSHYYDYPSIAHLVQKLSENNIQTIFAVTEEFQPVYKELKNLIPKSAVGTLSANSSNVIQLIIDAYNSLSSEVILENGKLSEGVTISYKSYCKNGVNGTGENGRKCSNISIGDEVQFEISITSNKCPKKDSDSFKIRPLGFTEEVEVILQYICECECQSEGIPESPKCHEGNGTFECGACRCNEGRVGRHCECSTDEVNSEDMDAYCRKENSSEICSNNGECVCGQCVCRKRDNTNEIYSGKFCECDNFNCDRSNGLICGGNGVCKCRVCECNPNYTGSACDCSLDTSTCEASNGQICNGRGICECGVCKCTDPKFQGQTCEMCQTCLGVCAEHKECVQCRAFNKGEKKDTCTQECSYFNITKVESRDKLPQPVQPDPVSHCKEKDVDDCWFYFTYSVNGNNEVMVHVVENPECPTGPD

The term IC50 denotes the concentration needed to halve the response being measured. Turning to `CC(C)C[C@H](NC(=O)[C@H](CCC(=O)O)NC(=O)[C@H](CCCNC(=N)N)NC(=O)[C@H](CC(C)C)NC(=O)[C@H](CC(=O)O)NC(=O)CNC(=O)[C@@H](N)CCCNC(=N)N)C(=O)N[C@@H](C)C(=O)N[C@@H](CCCCNC(=O)c1ccc(F)cc1)C(N)=O` [compound 5] (H-RGDLRELAK(Benzoyl(4-F))-NH2; N-terminus assumed), the IC50 at integrin αvβ1 turned out to be 1.9 ± 0.3 µM; on integrin αvβ6 (read-out: IC50 (μM) αvβ6, competitive ELISA vs biotinylated TGFβ1-LAP, n = 3) it was 0.89 ± 0.14 µM. Also, the “selectivity ratio for integrin αvβ6 compared to αvβ5” value at integrin αvβ6 (from ELISA IC50 values) is > 100 :1.
